Test results reported in patent publication US20250017874A1, “PHARMACEUTICAL COMPOSITIONS FOR USE IN REDUCING HYPERPIGMENTATION” (Caliway Biopharmaceuticals Co., Ltd., priority 2023, published 2025).
Read-outs that look alike come from different tables or passages of the source.

How the values were obtained:
Type in all cases: cell-based, mouse
B16-F10 cells [1] = experiment: In vitro melanin content versus arbutin and hydroquinone (Example 6)
Experimental: Except the vehicle group, cells of the other groups were cultured with α-MSH for 24 hours first. The compositions for investigation (see Tables 19 and 20) were then added to the culture medium and the cells were further cultured for 24 hours. The rest of the experimental operation process was similar to that described in Example 3. […] [table] [table]

B16-F10 cell line [2] = experiment: In vitro whitening efficacy: melanin content (Example 7); settings: Table 26
Excerpt: (§1) Table 23 below lists the study design for evaluating EC50 values of IM01, which contains 4-[(E)-2-(3,5-dihydroxyphenyl)ethenyl]benzene-1,3-diol.
(§2) Table 25 below lists the study design for evaluating EC50 values of IM01, which contains 4-[(E)-2-(3,5-dihydroxyphenyl)ethenyl]benzene-1,3-diol.

B16-F10 cell line [3] = settings: for Relative cell viability (%): mouse
Excerpt: as §1, §2

B16-F10 cells [4] = experiment: In vitro efficacy comparison: melanin content, α-MSH 0.5 h then test article 30 h (Example 5); settings: α-MSH 0.5 h then TA 30 h
Experimental: B16-F10 cells were seeded in a 96-well plate. Except the vehicle group, cells of the other groups were cultured in the presence of α-MSH for 0.5 hours first. The compositions for examination were then added to the culture medium and the cells were further cultured for 30 hours. The rest of the experimental conditions and procedures were similar to those described in Example 3. Afterwards, the cells were collected to evaluate the effect of 4-[(E)-2-(3,5-dihydroxyphenyl)ethenyl]benzene-1,3-diol compositions (IM01 Group) and Arbutin and 5-[(E)-2-(4-hydroxyphenyl)ethenyl]benzene-1,3-diol (IM00 Group) compositions on reducing melanin levels. The experimental design is summarized in Table 18 and results shown in both Table 18 and FIG. 5.

Oc1ccc(O)cc1 [Hydroquinone, hydroquinone, reference compound]
Melanin content (%) Mean ± SD (B16-F10 cells [1]; TA 120 μM, Table 21 experiment): 61.5 ± 4.6%
Melanin content (%) (B16-F10 cell line [2]; TA 60 μM (/L of IM01 and HQ), HQ vehicle DDW): 34.6 ± 2.8%
Melanin content (%) (B16-F10 cell line [2]; TA 120 μM (/H of IM01 and HQ), HQ vehicle DDW): 40.5 ± 3.7%
Cytotoxicity (B16-F10 cell line [3]): high cytotoxicity
Relative cell viability (%) (B16-F10 cell line [3]; 60 μM): 88.2 ± 6.0%

OC[C@H]1O[C@@H](Oc2ccc(O)cc2)[C@H](O)[C@@H](O)[C@@H]1O [Arbutin, reference compound]
Melanin content (%) Mean (B16-F10 cells [4]; TA 918.27 μM): 95.8%
Melanin content (%) Mean ± SD (B16-F10 cells [1]; TA 450 μM, Table 21 experiment): 76.1 ± 6.3%
Melanin content (%) Mean ± SD (B16-F10 cells [1]; TA 900 μM, Table 21 experiment): 60.9 ± 4.5%
Melanin content (%) Mean ± SD (B16-F10 cells [1]; TA 900 μM, Table 22 experiment): 62.8 ± 1.8%
Melanin content (%) Mean ± SD (B16-F10 cells [1]; TA 1800 μM, Table 22 experiment): 47.1 ± 0.3%
Melanin content (%) (B16-F10 cell line [2]; TA 450 μM (Arbutin/L)): 78.5 ± 1.1%
Melanin content (%) (B16-F10 cell line [2]; TA 900 μM (Arbutin/H)): 67.0 ± 2.8%
Relative cell viability (%) (B16-F10 cell line [3]; 450 μM): 100.8 ± 1.2%
Relative cell viability (%) (B16-F10 cell line [3]; 900 μM): 93.7 ± 1.6%

Oc1ccc(/C=C/c2cc(O)cc(O)c2)cc1 [IM00, 5-[(E)-2-(4-hydroxyphenyl)ethenyl]benzene-1,3-diol]
Melanin content (%) Mean (B16-F10 cells [4]; TA 87.62 μM (IM00-20)): 98.9%
